Assay results taken from PubChem BioAssay AID248 (DTP/NCI, 2004).
Several values for one entry are separate records, joined by “and”; a condition that tells them apart may be missing. Identical values can stand only once. Inconclusive results and toxic doses are left out. Cut-off read from the data, not from the text of the source: active = T/C of 150% or more; inactive = T/C below 125%.

Tested on: L1210 leukemia ip in BDF1 mice, survival T/C
Test: NCI In Vivo Anticancer Drug Screen. Data for tumor model L1210 Leukemia (intraperitoneal) in B6D2F1 (BDF1) mice
Conditions: endpoint: mean survival time, higher = longer survival
Procedure, shortened: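 In this screen, tumor-bearing mice given compound are compared to those given vehicle, and their survival values are reported as a treated-to-control quotient.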

[1] = dose: 100.0 mg/kg/injection, schedule: Q01DX009 (ip), vehicle: saline with Tween-80
[2] = dose: 100.0 mg/kg/injection, schedule: Q01DX001 (ip), vehicle: carboxymethylcellulose (CMC)
[3] = dose: 200.0 mg/kg/injection, schedule: Q01DX001 (ip), vehicle: carboxymethylcellulose (CMC)
[4] = dose: 400.0 mg/kg/injection, schedule: Q01DX001 (ip), vehicle: carboxymethylcellulose (CMC)
[5] = dose: 12.5 mg/kg/injection, schedule: Q01DX009 (ip), vehicle: Klucel (hydroxypropylcellulose) (HPC)
[6] = dose: 25.0 mg/kg/injection, schedule: Q01DX009 (ip), vehicle: Klucel (hydroxypropylcellulose) (HPC)
[7] = dose: 100.0 mg/kg/injection, schedule: Q01DX001 (ip), vehicle: Klucel (hydroxypropylcellulose) (HPC)
[8] = dose: 200.0 mg/kg/injection, schedule: Q01DX001 (ip), vehicle: Klucel (hydroxypropylcellulose) (HPC)
[9] = dose: 200.0 mg/kg/injection, schedule: Q01DX009 (ip), vehicle: Klucel (hydroxypropylcellulose) (HPC)
[10] = dose: 400.0 mg/kg/injection, schedule: Q01DX001 (ip), vehicle: Klucel (hydroxypropylcellulose) (HPC)
[11] = dose: 100.0 mg/kg/injection, schedule: Q04DX003 (ip), vehicle: saline with Tween-80
[12] = dose: 200.0 mg/kg/injection, schedule: Q04DX003 (ip), vehicle: saline with Tween-80
[13] = dose: 400.0 mg/kg/injection, schedule: Q04DX003 (ip), vehicle: saline with Tween-80
[14] = dose: 200.0 mg/kg/injection, schedule: Q01DX009 (ip), vehicle: saline with Tween-80
[15] = dose: 400.0 mg/kg/injection, schedule: Q01DX009 (ip), vehicle: saline with Tween-80

Measured: T/C

CCC1=C(CC2NCCc3cc(OC)c(OC)cc32)CC2c3ccccc3CCN2C1 (stereo unspecified)
inactive: dose: 4.0 mg/kg/injection, schedule: Q04DX003 (ip), vehicle: water 105 % of control and 106 % of control | dose: 8.0 mg/kg/injection, schedule: Q04DX003 (ip), vehicle: water 104 % of control and 108 % of control | dose: 16.0 mg/kg/injection, schedule: Q04DX003 (ip), vehicle: water 112 % of control and 100 % of control | dose: 32.0 mg/kg/injection, schedule: Q04DX003 (ip), vehicle: water 105 % of control and 98 % of control | dose: 64.0 mg/kg/injection, schedule: Q04DX003 (ip), vehicle: water 100 % of control | dose: 75.0 mg/kg/injection, schedule: Q01DX001 (ip), vehicle: saline 100 % of control and 97 % of control | dose: 150.0 mg/kg/injection, schedule: Q01DX001 (ip), vehicle: saline 101 % of control and 103 % of control

COc1ccc(OC)c(NC(=O)NNC(=O)CNC(=O)Nc2cccc(C)n2)c1
inactive: dose: 25.0 mg/kg/injection, schedule: Q01DX009 (ip), vehicle: saline with Tween-80 94 % of control | dose: 50.0 mg/kg/injection, schedule: Q01DX009 (ip), vehicle: saline with Tween-80 94 % of control | [1] 90 % of control

Nc1cc(S(N)(=O)=O)ccc1Br
inactive: dose: 100.0 mg/kg/injection, schedule: Q04DX003 (ip), vehicle: water 95 % of control | dose: 200.0 mg/kg/injection, schedule: Q04DX003 (ip), vehicle: water 97 % of control | dose: 400.0 mg/kg/injection, schedule: Q04DX003 (ip), vehicle: water 92 % of control

Cc1c(C(=O)O)sc2ccc([N+](=O)[O-])cc12
inactive: [2] 97 % of control | [3] 95 % of control | [4] 92 % of control

CC(=O)Nc1c(Cl)cc(-c2ccc(F)cc2)cc1Cl
inactive: dose: 15.0 mg/kg/injection, schedule: Q01DX001 (ip), vehicle: carboxymethylcellulose (CMC) 96 % of control | dose: 30.0 mg/kg/injection, schedule: Q01DX001 (ip), vehicle: carboxymethylcellulose (CMC) 94 % of control | dose: 60.0 mg/kg/injection, schedule: Q01DX001 (ip), vehicle: carboxymethylcellulose (CMC) 98 % of control

C/C(=N\NC(=O)C1CCCO1)c1cccc2ccccc12 (stereo unspecified)
inactive: [5] 97 % of control | [6] 114 % of control

O=c1[nH]c(Cc2ccccc2)c(N=Nc2ccccc2)c(=O)[nH]1
inactive: dose: 25.0 mg/kg/injection, schedule: Q01DX001 (ip), vehicle: saline with Tween-80 93 % of control | dose: 50.0 mg/kg/injection, schedule: Q01DX001 (ip), vehicle: saline with Tween-80 93 % of control | dose: 100.0 mg/kg/injection, schedule: Q01DX001 (ip), vehicle: saline with Tween-80 93 % of control

CN=NC(OC(C)=O)(c1ccccc1)c1ccccc1
inactive: [7] 101 % of control | dose: 100.0 mg/kg/injection, schedule: Q01DX009 (ip), vehicle: Klucel (hydroxypropylcellulose) (HPC) 100 % of control | dose: 100.0 mg/kg/injection, schedule: Q04DX003 (ip), vehicle: Klucel (hydroxypropylcellulose) (HPC) 108 % of control | [8] 95 % of control | [9] 97 % of control | dose: 200.0 mg/kg/injection, schedule: Q04DX003 (ip), vehicle: Klucel (hydroxypropylcellulose) (HPC) 103 % of control | [10] 94 % of control | dose: 400.0 mg/kg/injection, schedule: Q01DX009 (ip), vehicle: Klucel (hydroxypropylcellulose) (HPC) 105 % of control | dose: 400.0 mg/kg/injection, schedule: Q04DX003 (ip), vehicle: Klucel (hydroxypropylcellulose) (HPC) 101 % of control

CC(=O)CC(OC(=O)c1cc([N+](=O)[O-])cc([N+](=O)[O-])c1)(C(F)(F)F)C(F)(F)F
inactive: dose: 6.25 mg/kg/injection, schedule: Q01DX009 (ip), vehicle: Klucel (hydroxypropylcellulose) (HPC) 93 % of control | [5] 88 % of control | [6] 88 % of control

C/C=C(\C)C(=O)Nc1cccc(O)c1
inactive: [11] 90 % of control | [12] 93 % of control | [13] 90 % of control

CC(C)N=NCCO
inactive: [7] 101 % of control | [8] 103 % of control | [9] 92 % of control | [10] 99 % of control

Cc1ccc(C2=CCCCC2)cc1
inactive: dose: 50.0 mg/kg/injection, schedule: Q01DX001 (ip), vehicle: carboxymethylcellulose (CMC) 96 % of control | [2] 96 % of control | [4] 94 % of control

COc1ccc(OC)c(NC(=O)c2ccccc2Cl)c1
inactive: [1] 93 % of control and 102 % of control | dose: 100.0 mg/kg/injection, schedule: Q04DX002 (ip), vehicle: saline with Tween-80 103 % of control and 111 % of control | [11] 95 % of control | [14] 94 % of control and 101 % of control | dose: 200.0 mg/kg/injection, schedule: Q04DX002 (ip), vehicle: saline with Tween-80 93 % of control and 100 % of control | [12] 94 % of control | [15] 96 % of control | dose: 400.0 mg/kg/injection, schedule: Q04DX002 (ip), vehicle: saline with Tween-80 103 % of control and 104 % of control | [13] 97 % of control

O=[n+]1ccn2cc3ccccc3cc2c1
inactive: dose: 12.5 mg/kg/injection, schedule: Q01DX009 (ip), vehicle: saline with Tween-80 105 % of control

COc1ccc(NC(=O)C(c2ccccc2)c2ccccc2)cc1
inactive: [11] 92 % of control | [12] 93 % of control | [13] 92 % of control

COc1cc(N2CCOCC2)ccc1[N+](=O)[O-]
inactive: dose: 50.0 mg/kg/injection, schedule: Q01DX009 (ip), vehicle: saline 105 % of control | dose: 100.0 mg/kg/injection, schedule: Q01DX009 (ip), vehicle: saline 103 % of control | dose: 100.0 mg/kg/injection, schedule: Q04DX003 (ip), vehicle: saline 102 % of control | dose: 200.0 mg/kg/injection, schedule: Q01DX009 (ip), vehicle: saline 105 % of control | dose: 200.0 mg/kg/injection, schedule: Q04DX003 (ip), vehicle: saline 103 % of control

N=C(OC1CCCCC1)N1CCCC1
inactive: dose: 22.0 mg/kg/injection, schedule: Q01DX Z (ip), vehicle: saline 98 % of control | dose: 33.0 mg/kg/injection, schedule: Q01DX Z (ip), vehicle: saline 98 % of control | dose: 50.0 mg/kg/injection, schedule: Q01DX Z (ip), vehicle: saline 98 % of control

CCCC(O)CC(C)O (stereo unspecified)
inactive: dose: 100.0 mg/kg/injection, schedule: Q01DX001 (ip), vehicle: saline 97 % of control | dose: 200.0 mg/kg/injection, schedule: Q01DX001 (ip), vehicle: saline 100 % of control | dose: 400.0 mg/kg/injection, schedule: Q01DX001 (ip), vehicle: saline 95 % of control

CC(C)CCCC(C)C1CCC2C3=CC=C4CC(OC(=O)c5cc([N+](=O)[O-])cc([N+](=O)[O-])c5)CCC4(C)C3CCC21C (stereo unspecified)
inactive: dose: 100.0 mg/kg/injection, schedule: Q01DX001 (ip), vehicle: other 88 % of control | dose: 200.0 mg/kg/injection, schedule: Q01DX001 (ip), vehicle: other 98 % of control

O=C(Nc1ccc2c(c1)OCO2)O/N=C\c1ccccc1
inactive: [1] 89 % of control | [11] 103 % of control | [14] 91 % of control | [12] 97 % of control | [15] 91 % of control | [13] 89 % of control

CCOC(=O)C(C(=O)OCC)c1c[n+]([O-])c2ccccc2c1[N+](=O)[O-]
inactive: [2] 93 % of control | [3] 98 % of control | [4] 98 % of control
